Measured values taken from patent US20240373849A1, “INSECT NEUROPEPTIDE ANALOGUES” (THE UNIVERSITY COURT OF THE UNIVERSITY OF GLASGOW, priority 2020, published 2024).
Several values for one entry are separate records, joined by “and”; a condition that tells them apart may be missing. Equal values may be shown once. Read-outs that look alike come from different tables or passages of the source. Values belong to the molecule of their own block, whether it stands above or below them. Square brackets hold non-standard residues; d marks the D form. * marks the point of attachment. Guanidyl = -C(=N+Me2)NMe2 on the N-terminal amine (tetramethylguanidyl cap), CN(C)C(=[N+](C)C)*; NMeL = CN[C@@H](CC(C)C)C(=O)O; NMeV = CN[C@H](C(=O)O)C(C)C; NMeA = CN[C@@H](C)C(=O)O; Aib = CC(C)(N)C(=O)O

Assays:
CapaR = target: T1, CapaR (Drosophila melanogaster, UniProt Q8ITC7); assay: Measurement of intracellular Ca2+ in S2 cells transfected with CapaR (agonist response); assay type: cell-based; conditions: 10^−7 M; activity normalised to that of native Capa2 (designated 100%)
T1 construct: transiently transfected with the apoaequorin ORF; expressed in transfected cells; host or cells: Drosophila melanogaster S2 cells, transient transfection, expression induced with CuSO4
T1 sequence (Q8ITC7 1-477): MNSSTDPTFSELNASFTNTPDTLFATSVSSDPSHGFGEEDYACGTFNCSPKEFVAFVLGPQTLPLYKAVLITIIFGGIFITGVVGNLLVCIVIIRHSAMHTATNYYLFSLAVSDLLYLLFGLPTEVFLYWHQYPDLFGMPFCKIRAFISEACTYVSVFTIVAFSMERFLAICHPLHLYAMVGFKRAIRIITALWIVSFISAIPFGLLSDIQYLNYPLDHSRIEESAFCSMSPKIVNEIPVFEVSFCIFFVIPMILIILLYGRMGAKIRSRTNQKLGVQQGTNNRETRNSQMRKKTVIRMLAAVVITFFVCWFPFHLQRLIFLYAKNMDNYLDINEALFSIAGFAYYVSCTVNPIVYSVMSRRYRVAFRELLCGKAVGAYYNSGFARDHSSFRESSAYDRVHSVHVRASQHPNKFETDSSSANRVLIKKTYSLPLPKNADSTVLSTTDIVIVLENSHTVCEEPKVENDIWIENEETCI
Method: Drosophila melanogaster S2 cells, cultured under standard conditions (1) were transiently transfected with the apoaequorin ORF (Radford J C, Davies S A, Dow J A. Systematic G-protein-coupled receptor analysis in Drosophila melanogaster identifies a leucokinin receptor with novel roles. J Biol Chem. 2002; 277:38810-38817) and a receptor ORF construct, and expression induced using CuSO4. Transfected S2 cells were harvested and incubated with 2.5 μM coelenterazine in the dark at RT for 1-2 h as described (ibid). 25,000 cells were then placed in 135 μl Schneider's medium supplemented with 10% FCS in a well of a white polystyrene 96-well plate (Berthold Technologies). Bioluminescence recordings were carried out using a Mithras LB940 automated 96-well plate reader (Berthold Technologies) and MikroWin software. 15 μl of each of different peptides were applied to final concentrations as required.
Peptides were tested at 10^−7M.
At the end of each recording samples were disrupted by the addition of 100 μl lysis solution, and the [Ca^2+] concentrations calculated as previously described (Rosay P, Davies S A, Yu Y, Sozen A, Kaiser K, et al. Cell-type specific calcium signalling in a Drosophila epithelium. J Cell Sci. 1997; 110:1683-1692).
For the Capa1 and Capa2 peptides, the relevant native control peptide (D. melanogaster Capa1 or Capa2 respectively) was used as a control. Control agonist activity was normalised to 100% and activity of neuropeptide analogues is expressed relative to that.

[1] = system: bumblebees (Bombus terrestris); assay: Bumblebee acute oral toxicity test; assay type: in vivo; conditions: for safety towards B. terrestris in the bumblebee oral toxicity assay: in vivo
Method: Oral toxicity against bumblebees (Bombus terrestris) was determined as previously described:
OECD (2017), Test No. 247: Bumblebee, Acute Oral Toxicity Test, OECD Guidelines for the Testing of Chemicals, Section 2, OECD Publishing, Paris, https://doi.org/10.1787/9789264284128-en.
Example data are provided for peptides, AH56, AH257, AH259 in Tables 4, 5 below. […]
Data were acquired for: feeding behaviour—weight of liquid consumed pre- and post-treatment; lethality (days).
There was no negative impact on feeding behaviour from capa peptides. Acute bumblebee toxicity was also assessed for other peptide candidates including: AH270, PEG270. Overall, capa peptides are bee safe.

[2] = target: T2, Drosophila melanogaster capa GPCR, capaR (Drosophila melanogaster, UniProt Q8ITC7 1-477); assay: cell-based or functional assay
T2 sequence (looked up): T1 sequence (Q8ITC7 1-477)

[3] = target: T2, Drosophila melanogaster capa GPCR, capaR; assay: cell-based or functional assay; remark: listed apart in the source
[4] = Table 11, individual bees, peptide 1 × 10 − 5M or Spirotetramat 25 uM

Molecule: CC(C)C[C@H](N=C(N(C)C)N(C)C)C(=O)N[C@H](C(=O)N[C@@H](C)C(=O)N[C@@H](Cc1ccccc1)C(=O)N1CCC[C@H]1C(=O)N[C@@H](CCCNC(=N)N)C(=O)N(C)[C@H](C(N)=O)C(C)C)C(C)C [AH257, Guanidyl-LVAFPR-(Me)V-NH2]
CapaR Ca^2+ Agonist response (CapaR): 85%
lethal effect on bumblebees ([1]; 1×10^−5 M in 50% sucrose, 0.1% ATPlus, oral): No lethal effect
dead? ([1]; Table 10, individual bees, peptide ×10−5M or imidacloprid 28.3 uM in 50% sucrose, 0.1% ATPlus): 2
safety towards B. terrestris in the bumblebee oral toxicity assay [1]: safe
Est weight sucrose consumed post testing/day ([1]; individual bees, peptide ×10−5M or imidacloprid 28.3 uM in 50% sucrose, 0.1% ATPlus): 0.4789 grams/day and 0.0824 grams/day and 0.2612 grams/day and 0.3450 grams/day and 0.1265 grams/day and 0.4161 grams/day and 0.2912 grams/day and 0.3677 grams/day and 0.2298 grams/day and 0.3016 grams/day and 0.2869 grams/day
Feeding impacted? (+ve feeding increased post pep, −ve feeding decreased post pep) ([1]; individual bees, post minus pre testing sucrose consumption): 0.0902 grams/day and −0.0881 grams/day and 0.0770 grams/day and 0.0006 grams/day and −0.0429 grams/day and −0.0008 grams/day and −0.0193 grams/day and 0.2039 grams/day and 0.0347 grams/day and 0.0995 grams/day and 0.0416 grams/day
T-test outcome, sucrose consumed Pre vs Post ([1]; per treatment group): No sig effect

Molecule: CC(C)C[C@H](NC(=O)CCCCCN)C(=O)N[C@H](C(=O)N(C)[C@@H](C)C(=O)N[C@@H](Cc1ccccc1)C(=O)N1CCC[C@H]1C(=O)N[C@@H](CCCNC(=N)N)C(=O)N(C)[C@H](C(N)=O)C(C)C)C(C)C [AH270, H-Ahx-LV-(Me)A-FPR-(Me)V-NH2]
CapaR Ca^2+ Agonist response (CapaR): 85%
Liquid post exposure (weight), Mean ([1]; Table 11, group mean, n=10): 0.7794 g
liquid consumed per day post exposure, Mean ([1]; Table 11, group mean, n=10): 0.1949 g
Liquid post exposure (weight) [1, 4]: 0.9262 g and 0.7170 g and 1.8815 g and 0.8535 g and 0.6307 g and 0.4568 g and 0.3007 g and 0.5227 g and 1.1365 g and 0.3679 g
days alive [1, 4]: 4 days
liquid consumed per day post exposure [1, 4]: 0.2316 g and 0.1793 g and 0.4704 g and 0.2134 g and 0.1577 g and 0.1142 g and 0.0752 g and 0.1307 g and 0.2841 g and 0.0920 g
safety towards B. terrestris in the bumblebee oral toxicity assay [1]: safe

Molecule: H-LYAFARV-NH2 [AH188 (H-LYAFARV-NH2)]
CapaR Ca^2+ Agonist response at 10^-7 M [2]: 64 % of native Capa1 activity

B3: AH259 (Guanidyl-L-(Me)V-AFPRV-NH2) (peptide)
peptide: Guanidyl-L[NMeV]AFPRV-NH2
SMILES: CC(C)C[C@H](NC(N(C)C)=[N+](C)C)C(=O)N(C)[C@H](C(=O)N[C@@H](C)C(=O)N[C@@H](Cc1ccccc1)C(=O)N1CCC[C@H]1C(=O)N[C@@H](CCCNC(=N)N)C(=O)N[C@H](C(N)=O)C(C)C)C(C)C
CapaR Ca^2+ Agonist response at 10^-7 M [3]: 12 % of native Capa2 activity

B6: AH257 (Guanidyl-LVAFPR-(Me)V-NH2) (peptide)
peptide: Guanidyl-LVAFPR[NMeV]-NH2
SMILES: CC(C)C[C@H](NC(N(C)C)=[N+](C)C)C(=O)N[C@H](C(=O)N[C@@H](C)C(=O)N[C@@H](Cc1ccccc1)C(=O)N1CCC[C@H]1C(=O)N[C@@H](CCCNC(=N)N)C(=O)N(C)[C@H](C(N)=O)C(C)C)C(C)C
CapaR Ca^2+ Agonist response at 10^-7 M [3]: 85 % of native Capa2 activity

Other lines, results leading:

CapaR Ca^2+ Agonist response at 10^-7 M [2]: 26 % of native Capa1 activity
B1: AH383 (H-(Me)L-YAFARV-NH2) (peptide)
peptide: H-[NMeL]YAFARV-NH2
SMILES: CN[C@@H](CC(C)C)C(=O)N[C@@H](Cc1ccc(O)cc1)C(=O)N[C@@H](C)C(=O)N[C@@H](Cc1ccccc1)C(=O)N[C@@H](C)C(=O)N[C@@H](CCCNC(=N)N)C(=O)N[C@H](C(N)=O)C(C)C

CapaR Ca^2+ Agonist response at 10^-7 M [2]: 36 % of native Capa1 activity
B2: AH382 (H-LY-(Me)A-FARV-NH2) (peptide)
peptide: H-LY[NMeA]FARV-NH2
SMILES: CC(C)C[C@H](N)C(=O)N[C@@H](Cc1ccc(O)cc1)C(=O)N(C)[C@@H](C)C(=O)N[C@@H](Cc1ccccc1)C(=O)N[C@@H](C)C(=O)N[C@@H](CCCNC(=N)N)C(=O)N[C@H](C(N)=O)C(C)C

CapaR Ca^2+ Agonist response at 10^-7 M [2]: 14 % of native Capa1 activity
B4: AH380 (H-LYAFAR-(Me)V-NH2) (peptide)
peptide: H-LYAFAR[NMeV]-NH2
SMILES: CC(C)C[C@H](N)C(=O)N[C@@H](Cc1ccc(O)cc1)C(=O)N[C@@H](C)C(=O)N[C@@H](Cc1ccccc1)C(=O)N[C@@H](C)C(=O)N[C@@H](CCCNC(=N)N)C(=O)N(C)[C@H](C(N)=O)C(C)C

CapaR Ca^2+ Agonist response at 10^-7 M [2]: 17 % of native Capa1 activity
B5: AH387 (H-LY-Aib-FARV-NH2) (peptide)
peptide: H-LY[Aib]FARV-NH2
SMILES: CC(C)C[C@H](N)C(=O)N[C@@H](Cc1ccc(O)cc1)C(=O)NC(C)(C)C(=O)N[C@@H](Cc1ccccc1)C(=O)N[C@@H](C)C(=O)N[C@@H](CCCNC(=N)N)C(=O)N[C@H](C(N)=O)C(C)C
